From patent US20010051652A1, “Method of treating paralysis of the extremities caused by cerebral infarction” (Ajinomoto Co., Inc., priority 1999, published 2001)

Legend:
male Wister rats [1] = test: Adduction/pronation of the left upper limb after middle cerebral artery ischemia-reperfusion; assay type: in vivo, rat; settings: for Adduction/pronation, during ischemia (rats affected/total): baseline before melatonin administration
Description: (§1) Eight to ten-week-old male Wister rats weighing of 250 to 300 g were used. Under halothane anesthesia, a 24 G (24 gauge) plug was inserted from a right external carotid artery of each rat so as to arrive to a starting site of its middle cerebral artery of the circle of Willis through its internal carotid artery. Immediately, the anesthesia was stopped, and the rat was dehypnotized. It was confirmed that the rat rotated clockwise, had ischemia, and had paralysis of its left upper limb. After one hour, the plug was removed from the rat under halothane anesthesia, and the blood flow was thereby reperfused. In the melatonin administration group, 1 ml of a physiological saline solution containing 6 mg/kg of melatonin was injected using a probe into the stomach of each rat each day for 10 days starting 24 hours after the reperfusion. In the control group, 1 ml of a physiological saline solution was similarly injected into each rat. After 19 days, the presence of adduction/pronation of the left upper limb and the clockwise rotation were determined for each rat. To assess the adduction/pronation of the left upper limb, each rat was hung via its tail, and the movement of the left upper limb was observed. If the rat could not voluntarily move the left upper limb, and had paralysis of the left upper limb, the left upper limb was considered to show adduction/pronation. In an experiment similar to that as described in Example 1, the adduction/pronation of the left upper limb and the clockwise rotation were determined 11 days after the ischemic incidence.

[2] = cited from earlier work
CAl hippocampal neurons = settings: intraperitoneally administered, especially prior to cerebral ischemia or during reperfusion; cited from earlier work
male Wister rats [3] = test: Area of the cerebral infarcted lesion; assay type: in vivo, rat; settings: Example 3; rats of Example 2, after 11 days; section showing maximum lesion
Description: Using the rats from the experiment of Example 2, the area of the cerebral infarcted lesion in each rat after 11 days was determined. The area of the cerebral infarcted lesion was determined by preparing a consecutive section of 50 μm from a cerebral infarcted region of about 3 mm and subjecting the section showing a maximum lesion to the NIH measurement program to determine the area of the maximum lesion.

male Wister rats [4] = test: Clockwise rotation after middle cerebral artery ischemia-reperfusion; assay type: in vivo, rat; settings: for Clockwise rotation, during ischemia (rats affected/total): baseline before melatonin administration
Description: as §1, with “clockwise rotation,” for “adduction/pronation of the left upper limb,”, “placed on a round plate 2 m in diameter for 5 minutes.” for “hung via its tail, and the movement of the left upper limb was observed.”, “rat” for “rat could not voluntarily move the left upper limb, and”, “it rotated clockwise.” for “the left upper limb was considered to show adduction/pronation.”

[5] = Example 1, 6 mg/kg into the stomach each day for 10 days starting 24 hours after reperfusion
[6] = Example 2, experiment similar to Example 1

Structure (SMILES): COc1ccc2[nH]cc(CCNC(C)=O)c2c1 [Melatonin, N-[2-(5-methoxy-1H-indol-3-yl)ethyl]acetamide]
- Adduction/pronation, 19 days after ischemia (rats affected/total) (male Wister rats [1]; [5]): 1/4
- Adduction/pronation, during ischemia (rats affected/total) (male Wister rats [1]; Example 1): 4/4
- Adduction/pronation, during ischemia (rats affected/total) (male Wister rats [1]; Example 2): 7/7
- Adduction/pronation, 11 days after ischemia (rats affected/total) (male Wister rats [1]; [6]): 3/7
- passage into the brain ([2]; intravenously administered): pass into the brain
- passage through the blood-brain barrier ([2]; orally administered): passes through the blood-brain barrier
- protection of CAl hippocampal neurons against ischemic injury (CAl hippocampal neurons): protects CAl hippocampal neurons against ischemic injury
- Area of the infarcted lesion, cerebral cortex (male Wister rats [3]): 5.47 mm^2
- Area of the infarcted lesion, striatum (male Wister rats [3]): 7.15 mm^2
- Clockwise rotation, 19 days after ischemia (rats affected/total) (male Wister rats [4]; [5]): 1/4
- Clockwise rotation, during ischemia (rats affected/total) (male Wister rats [4]; Example 1): 4/4
- Clockwise rotation, during ischemia (rats affected/total) (male Wister rats [4]; Example 2): 7/7
- Clockwise rotation, 11 days after ischemia (rats affected/total) (male Wister rats [4]; [6]): 0/7
